One data set concerns hexobarbital oxidase. The data set can be described thus: in vivo measurement of hexobarbital oxidase activity (hexobarbital narcosis period). Set-up: species or system rat (female Hann.-Wistar). The following applies: 40 mg./kg. oral single dose, n=10, mean ± S.E.; for Narcosis period in % of the control, 1 hour: hexobarbital sodium 60 mg./kg. i.v. 1 hour after; for Narcosis period in % of the control, 24 hours: hexobarbital sodium 60 mg./kg. i.v. 24 hours after. How it is done: The enzyme-inducing potency of the new compounds according to the invention was determined by several methods. One of these methods was the in vivo measurement of hexobarbital oxidase activity.
To determine the change of hexobarbital oxidase activity female Hann.-Wistar rats, each weighing 50 to 60 g. were treated orally with a single 40 mg./kg. dose of the active agent. One and 24 hours after the administration of the active agent, respectively, the animals were narcotized with a 60 mg./kg. i.v. dose of hexobarbital sodium, and the time elapsed until complete wakening from ceasing of the righting reflex was measured (Noordhoex J.: Eur. J. Pharmacol, 3, 242, 1968). As a reference compound phenobarbital was used. The data were recorded, and the mean values, the standard errors, as well as the percentage increase with respect to the control were calculated for each group. Abbreviations:
S.E.=standard error of the mean value,
The control group was treated with a placebo. [formula] A=α-ethyl-α-(3-trifluoromethylphenyl)-4-[2-(piperidin-l-yl)-eth oxy]-benzylalcohol;

The nature of a further data set: acute toxicity. Also noted: species or system rat (H-Wistar, both sexes). The following applies: rat, in vivo, po; for mortality at 336 h: 500 mg./kg. p.o. single dose, 14 days observation, n=10, read-out: Perished animals. On the procedure: The acute toxicity of the compounds of the formula (I) was determined on H-Wistar rats of both sexes, each weighing 160 to 180 g. The compounds were administered in a single 500 mg./kg. dose, orally.

Data set [1] deals with NADPH: ferricytochrome C (P-450) reductase (E.C. 1.6.2.4). The experiment in a line: activity of NADPH: ferricytochrome C (P-450) reductase. The format is in vivo, rat (female H. Wistar). The following applies: 40 mg./kg. single oral dose, 24 hours; control 4686 ± 286.2; ± S.E. How it is done: (§1) The enzyme inducing activity of the compounds of the formula (I) was further tested by determining the activity of the polysubstrate monooxygenase enzyme system of the liver after treatment with a placebo and the compounds according to the invention, respectively. Female H. Wistar rats each weighing 50 to 60 g. were administered a single 40 mg./kg. dose of the test compounds, orally. 24 hours after treatment the animals were decapitated and the livers were eliminated. […] The cytochrome P-450 concentration was determined from the carbon monoxide differential spectrum of a reduced microsomal suspension (Omura T. et al.: J. Biol. Chem. 239, 2370 (1964)), the quantity of cytochrome b-5 was determined from a NADH differential spectrum (Raw J. et al.: J. Biol. Chem. 234, 1867 (1959)). The activity of NADPH: ferricytochrome C (P-450) reductase (E.C. 1.6.2.4) was measured according to Williams C. […] The activity of aniline hydroxylase was determined according to Chhabra R. S. et al.: Toxicol. […] Pharmacol., 22, 50 (1972) by measuring the velocity of p-aminophenol formation, while the […] activity was determined on the basis of the quantity of formaldehyde formed, following the method of Gourlay G. K. et al.: Biochem. Pharmacol., 27, 965 (1978). […]

A further data set has as its system Microsomal protein. The data set can be described thus: Microsomal protein of the liver after treatment. The following applies: 40 mg./kg. single oral dose, 24 hours; control 29.3 ± 1.01; ± S.E. The format is in vivo, rat (female H. Wistar). How it is done:
as §1

The subject of the next data set is aniline hydroxylase. The experiment in a line: activity of aniline hydroxylase (p-aminophenol formation). The format is in vivo, rat (female H. Wistar). The following applies: 40 mg./kg. single oral dose, 24 hours; control 20.3 ± 0.88; ± S.E. On the procedure:
as §1

A further data set relates to Cytochrome P-450. The data set can be described thus: Cytochrome P-450 concentration from carbon monoxide differential spectrum. The following applies: 40 mg./kg. single oral dose, 24 hours; control 12.8 ± 0.63; ± S.E. The format is in vivo, rat (female H. Wistar). On the procedure:
as §1

Data set [2] has as its system aminopyridine demethylase. The experiment in a line: aminopyridine demethylase activity (formaldehyde formed). The following applies: 40 mg./kg. single oral dose, 24 hours; control 254.8 ± 7.47; ± S.E. Type of data set: in vivo, rat (female H. Wistar). How it is done:
as §1

For the next data set, the system named is liver. The data set can be described thus: Relative weight of liver after treatment. Type of data set: in vivo, rat (female H. Wistar). The following applies: 40 mg./kg. single oral dose, 24 hours; control 4.3 ± 0.17; ± S.E. How it is done:
as §1

The test system of a further data set is Cytochrome b-5. The experiment in a line: Cytochrome b-5 quantity from NADH differential spectrum. The format is in vivo, rat (female H. Wistar). The following applies: 40 mg./kg. single oral dose, 24 hours; control 8.6 ± 0.43; ± S.E. On the procedure: as §1
The subject of a further data set is mice and rats. Type of data set: in vivo. The following applies: orally, even in a dose of 40 mg./kg. From the text: The central nervous activities of the compounds according to the invention were examined on mice and rats with the following methods: electroshock (Swinyard, E. A., Brown, W. C., Goodman, L. S.: J. Pharmacol. Exp. Ther. 106, 319 (1952)), metrazole spasm (Everett, G. M., Richards, R. K.: J. Pharmacol. Exp. Ther. 81, 402 (1944)), thiosemicarbazide spasm ( Da Venzo, J. P., Greig, M. E., Cormin, M. A.: Amer. J. Physiol. 201, 833 (1961)), strychnine spasm (Kerley, T. L., Richards, A. G., Begley, R. W., Abreu, B. B., Wesver, L. C.: J. Pharmacol. Exp. Ther. 132, 360 (1961)), nicotine spasm (Stone, C. A., Mecklenburg, K. L., Torhans, M. L.: Arch. Int. Pharmacodyn. 117, 419 (1958)), rotarod test (Kinnard, W. C., Carr, C. J.: J. Pharmacol. Expt. Ther. 121, 354 (1957)), physostigmine lethality preventing effect (Nose, T., Kojima, M.: Europ. J. Pharmacol. 10, 83 (1970)), yohimbine potentiation effect (Quinton, R. M.: Brit. J. Pharmacol. 21, 51 (1963)), and analgesic activity (Bianchi, G., Francheschini, J.: Brit. J. Pharm. Chemother. 9, 280 (1954)).
As a reference substance, phenobarbital was used. […].

The structures appear in SMILES notation.

What is called LD50 is the dose expected to kill half of the subjects tested. A higher LD50 goes with lower toxicity.

Consider `CCC(O)(c1ccc(OCCN2CCCCC2)cc1)c1cccc(C(F)(F)F)c1` (stereo not drawn) [A, α-Ethyl-α-(3-trifluoromethylphenyl)-4-[2-(piperidin-1-yl)-ethoxy]-benzylalcohol], for which, in the data set on hexobarbital oxidase, the “Narcosis period in % of the control, 1 hour” value (“Narcosis period in % … 1 hour” below) is given as 177 ± 5.0% and the “Narcosis period in % of the control, 24 hours” value (from here on “Narcosis period in % … 24 hours”) was found to be 49 ± 0.7%. Also, the mortality at 336 h in “acute toxicity” is 0%.
On the same counts, the results for `CCC(O)(c1ccc(OCCN(C)C)cc1)c1cccc(C(F)(F)F)c1` (stereo not drawn) [B, α-ethyl-α-(3-trifluoromethylphenyl)-4-[2-(dimethylamino)-ethoxy]-benzylalcohol] are 180 ± 10.0%, 49 ± 3.3% and 0%.
For the compound `CCC(O)(c1ccc(OCCN2CCCC2)cc1)c1ccccc1OC` (stereo not drawn) [C, α-Ethyl-α-(2-methoxyphenyl)-4-[2-(pyrrolidin-1-yl)-ethoxy]-benzylalcohol], in the data set with hexobarbital oxidase, the “Narcosis period in % … 1 hour” value is on record as 113 ± 12.0% and the “Narcosis period in % … 24 hours” value stood at 57 ± 7.8%. Also, in the data set “acute toxicity”, the mortality at 336 h amounted to 0%.
With `CCC(O)(c1ccc(F)cc1)c1ccc(OCCN2CCCCC2)cc1` (stereo not drawn) [D, α-Ethyl-α-(4-fluorophenyl)-4-[2-(piperidin-1-yl)-ethoxy]-benzylalcohol], the “c(P-450)reductase (nmoles/g. of liver/min.), % of control” value in data set [1] was 178 ± 16.2%. For the same compound, the “Microsomal protein (mg./g. of liver), % of control” value in the data set with Microsomal protein was 111 ± 4.2%. Further, the “Aniline hydroxylase (nmoles/g. of liver/min.), % of control” value with aniline hydroxylase was found to be 131 ± 5.9%. Further, the “Cytochrome P-450 (nmoles/g. of liver), % of control” value in the data set on Cytochrome P-450 is 163 ± 8.7%. In addition, in data set [2], the “Aminopyridine demethylase (nmoles/g./min.), % of control” value worked out at 123 ± 7.8%. Also, in the data set on hexobarbital oxidase, the “Narcosis period in % … 1 hour” value came to 120 ± 4.2% and the “Narcosis period in % … 24 hours” value was found to be 53 ± 3.7%. The mortality at 336 h in “acute toxicity” was determined as 0%. In addition, the “Relative weight of liver (g./100 g. of body weight), % of control” value in the data set with liver was determined as 122 ± 4.9%. In the data set on Cytochrome b-5, the “Cytochrome b-5 (nmoles/g. of liver), % of control” value came to 116 ± 4.8%.
Regarding `CCC1(c2ccccc2)C(=O)NC(=O)NC1=O` [phenobarbital, reference compound], the central nervous activities entry with mice and rats was “strong anticonvulsive muscle-coordinating and sedative effects”. For the same compound, in the data set with hexobarbital oxidase, the “Narcosis period in % … 1 hour” value was found to be 250 ± 15.8% and the “Narcosis period in % … 24 hours” value worked out at 60 ± 7.3%. Also, the LD50 in the data set “acute toxicity” (footnote x of Table 3) stood at 245 mg/kg.

The record behind these values is US4645774A, “Aminoethoxybenzylalcohol derivatives, process for their preparation and pharmaceutical compositions containing them” (Richter Gedeon Vegyeszeti Gyar Rt, priority 1982, dated 1987).
